The text below walks through data of paper PMC3150619 (Journal of medicinal chemistry, 2011).

Assay [1] addresses T1, PARG (Bos taurus, UniProt O02776). As to the kind of experiment: PARG assay. As to conditions: SAR discussion in text. The assay is classed as biochemical.
Assay [2] has as its system PARP activity in SCC-25 cells. As to the kind of experiment: NAD assay: NAD. The assay is classed as cell-based. The note with it: pretreated with 1mM compound, MNNG 5μg/mL for 30 minutes (Figure 2C).
A further assay concerns the target PARP-1 (Homo sapiens, UniProt P09874). The note with it: previous study; cited from earlier work.
In assay [3] the test system is PARG activity in SCC-25 cells. In words: PAR assay: PAR formation/turnover in SCC-25 cells after MNNG. The assay is classed as cell-based.
Assay [4] addresses T1, PARG. As to conditions: previous study; cited from earlier work.

T1 sequence (O02776 385-977): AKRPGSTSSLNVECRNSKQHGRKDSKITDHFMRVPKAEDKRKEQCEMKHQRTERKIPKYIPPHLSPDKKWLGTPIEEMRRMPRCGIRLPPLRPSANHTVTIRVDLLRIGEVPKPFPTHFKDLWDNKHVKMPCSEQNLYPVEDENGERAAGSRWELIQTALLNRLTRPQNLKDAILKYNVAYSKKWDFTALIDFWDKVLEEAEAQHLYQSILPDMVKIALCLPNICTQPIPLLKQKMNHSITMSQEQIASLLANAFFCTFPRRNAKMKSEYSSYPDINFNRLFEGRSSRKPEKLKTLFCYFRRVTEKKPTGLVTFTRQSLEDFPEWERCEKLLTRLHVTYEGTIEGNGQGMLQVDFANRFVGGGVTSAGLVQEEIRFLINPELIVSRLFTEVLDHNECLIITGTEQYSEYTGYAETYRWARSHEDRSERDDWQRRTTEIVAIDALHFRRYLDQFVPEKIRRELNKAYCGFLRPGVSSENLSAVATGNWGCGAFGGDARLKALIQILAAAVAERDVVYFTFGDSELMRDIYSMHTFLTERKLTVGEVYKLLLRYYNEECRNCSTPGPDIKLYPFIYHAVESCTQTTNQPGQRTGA
Sequence of PARP-1 (P09874 whole entry): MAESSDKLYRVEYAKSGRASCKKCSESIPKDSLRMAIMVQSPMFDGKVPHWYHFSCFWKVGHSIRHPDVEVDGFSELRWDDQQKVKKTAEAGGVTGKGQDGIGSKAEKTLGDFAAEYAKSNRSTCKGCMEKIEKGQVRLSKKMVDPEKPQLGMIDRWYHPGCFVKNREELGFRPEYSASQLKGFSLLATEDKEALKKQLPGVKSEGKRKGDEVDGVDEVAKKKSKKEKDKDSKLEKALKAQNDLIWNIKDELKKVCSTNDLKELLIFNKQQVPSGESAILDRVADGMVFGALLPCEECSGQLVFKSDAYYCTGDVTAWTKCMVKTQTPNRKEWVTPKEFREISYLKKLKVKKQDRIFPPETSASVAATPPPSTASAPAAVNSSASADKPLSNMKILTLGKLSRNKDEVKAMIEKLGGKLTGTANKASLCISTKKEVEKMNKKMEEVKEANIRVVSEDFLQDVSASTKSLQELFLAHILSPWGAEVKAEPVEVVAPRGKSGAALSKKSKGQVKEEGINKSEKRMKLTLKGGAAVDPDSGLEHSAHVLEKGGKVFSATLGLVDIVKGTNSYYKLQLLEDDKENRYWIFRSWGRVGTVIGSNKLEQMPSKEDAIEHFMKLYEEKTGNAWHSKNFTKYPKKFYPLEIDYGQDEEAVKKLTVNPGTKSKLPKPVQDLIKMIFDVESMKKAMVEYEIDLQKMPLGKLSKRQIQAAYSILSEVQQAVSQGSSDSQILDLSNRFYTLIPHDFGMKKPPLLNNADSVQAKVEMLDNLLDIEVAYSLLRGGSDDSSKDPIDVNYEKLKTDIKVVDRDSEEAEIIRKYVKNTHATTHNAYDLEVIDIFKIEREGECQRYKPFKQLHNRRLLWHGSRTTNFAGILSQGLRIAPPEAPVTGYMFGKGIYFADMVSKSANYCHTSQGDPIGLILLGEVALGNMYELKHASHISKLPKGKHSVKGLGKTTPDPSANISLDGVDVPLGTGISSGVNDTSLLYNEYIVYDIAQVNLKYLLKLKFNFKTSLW

On to `O=C(Nc1ccccc1Cl)c1cc(Cl)cc(Cl)c1O` [Compound 8b, 3,5-dichloro-N-(2-chlorophenyl)-2-hydroxybenzamide], for which the “PARG inhibition (in words)” value on PARG [1] was “slight loss of potency”.
The same measure, in the same setting: next, `O=C(Nc1ccc(O)c(Cl)c1)c1cc(Cl)cc(Cl)c1O` [Compound 8a, 3,5-dichloro-N-(3-chloro-4-hydroxyphenyl)-2-hydroxybenzamide]: “complete loss of PARG inhibition”; `O=C(Nc1ccccc1)c1cc(Cl)cc(Cl)c1O` [Compound 8h, 3,5-dichloro-2-hydroxy-N-benzamide]: “not enough to detect PARG inhibition”.
On to `O=C(O)c1ccccc1C(=O)Nc1ccc(Oc2ccc3ccccc3c2)c(Cl)c1` [Compound 6g, 2-(3-chloro-4-(naphthalen-2-yloxy)phenylcarbamoyl)benzoic acid], for which, at PARG [1], the “PARG inhibition (in words)” value is listed as “PARG inhibition was retained”.
`O=C(Nc1ccc(Oc2ccc3ccccc3c2)c(Cl)c1)c1cc(Cl)cc(Cl)c1` [Compound 6b, 3,5-dichloro-N-(3-chloro-4-(naphthalen-2-yloxy)phenyl)benzamide]: the “PARG inhibition (in words)” value on PARG [1] is given as “loss of detectable inhibition of PARG”. In addition, the “inhibition of NAD(H) depletion (in words)” value in assay [2] is given as “minimal effect”.
Take `Nc1ncnc2c1ncn2[C@@H]1O[C@H](COP(=O)(O)OP(=O)(O)OC[C@H]2NC[C@H](O)[C@@H]2O)[C@@H](O)[C@H]1O` [ADP-HPD, adenosine 5′-diphosphate (hydroxymethyl) pyrrolidinediol]: the “inhibition of PARP-1 (in words)” value at PARP-1 was “does not inhibit PARP-1”.
For the molecule `O=C(Nc1ccc(Oc2ccc3ccccc3c2)c(Cl)c1)c1cc(Cl)cc(Cl)c1O` [Compound 6a, 3,5-dichloro-N-(3-chloro-4-(naphthalen-2-yloxy)phenyl)-2-hydroxybenzamide], in assay [3] (SCC-25 cells pre-incubated with 1mM compound, MNNG 5μg/mL (Figure 3B)), the “increase of PAR accumulation at 10 min” value is given as “approximately 3 fold”. In addition, in assay [3] (SCC-25 cells, 1mM compound, MNNG 5μg/mL), the “inhibition of PARG in intact cells (in words)” value is given as “nearly complete inhibition of PARG”. In addition, the “inhibition of NAD(H) depletion (in words)” value in assay [2] is recorded as “partial inhibition of NAD(H) consumption”.
In the case of `Oc1c(Cl)cc(Cl)cc1CNc1ccc(Oc2ccc3ccccc3c2)c(Cl)c1` [Compound 10, 2,4-dichloro-6-((3-chloro-4-(naphthalen-2-yloxy)phenylamino)methyl)phenol], the “PARG inhibition (in words)” value on PARG [1] is “loss of PARG inhibition”.
On the same count and under the same terms, for `O=C(Nc1cccc(Cl)c1)c1cc(Cl)cc(Cl)c1O` [Compound 8c, 3,5-dichloro-N-(3-chlorophenyl)-2-hydroxybenzamide] the value was “PARG inhibition returned although at low potency”; for `Oc1c(Cl)cc(Cl)cc1/C=N/c1ccc(Oc2ccc3ccccc3c2)c(Cl)c1` [Compound 9, 2,4-dichloro-6-((3-chloro-4-(naphthalen-2-yloxy)phenylimino)methyl)phenol], “loss of PARG inhibition”.
In the case of `NC(=O)c1cc(Cl)cc(Cl)c1O` [Compound 7, 3,5-dichloro-2-hydroxybenzamide], the “PARG inhibition (in words)” value at PARG [1] is given as “loss of detectable PARG inhibition”. Also, the “inhibition of NAD(H) depletion (in words)” value in assay [2] was “minimal effect”.
For the molecule `O=C(Nc1ccc(Cl)cc1)c1cc(Cl)cc(Cl)c1O` [Compound 8d, 3,5-dichloro-N-(4-chlorophenyl)-2-hydroxybenzamide], the “PARG inhibition (in words)” value on PARG [1] is given as “slight loss of potency”. The “inhibition of NAD(H) depletion (in words)” value in assay [2] is reported as “partial inhibition of NAD(H) consumption”.
With `NC(=O)c1ccccc1` [Benzamide, benzamide, reference compound], the “inhibition of PARG (in words)” value on PARG [4] is listed as “does not inhibit PARG”. For the same molecule, the “inhibition of NAD(H) depletion (in words)” value in assay [2] was “complete inhibition of NAD(H) depletion”.
Consider `COc1c(Cl)cc(Cl)cc1C(=O)Nc1ccc(Oc2ccc3ccccc3c2)c(Cl)c1` [Compound 6f, 3,5-dichloro-N-(3-chloro-4-(naphthalen-2-yloxy)phenyl)-2-methoxybenzamide], for which the “PARG inhibition (in words)” value on PARG [1] was “loss of detectable PARG inhibition”.
